The results in this text go back to PubChem BioAssay (NCI).

The structures appear in SMILES notation.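 Step 1: Grow cells in 96-well plates. Step 2: Expose to compound for 48 hours at 5 concentrations. Step 3: Interpolate endpoints linearly; if unreached, use highest concentration. TGI: total growth inhibition.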 Where a SMILES comes first, the peptide text is derived from it. The star is where a group is joined. Boc = CC(C)(C)OC(=O)*

Common to all, as to assay: inhibition of tumour cell growth, NCI panel, 48 h
Assay [1] concerns CCRF-CEM leukemia.
The subject of assay [2] is BT-549 breast.
Assay [3] concerns HCC-2998 colon.
Assay [4] concerns CAKI-1 renal.
Assay [5] concerns RPMI-8226 leukemia.
Assay [6] deals with SW-620 colon.
The subject of assay [7] is U251 CNS.
The test system of assay [8] is UACC-257 melanoma.
Assay [9] deals with SK-MEL-28 melanoma.
Assay [10] has as its system LOX IMVI melanoma.
Assay [11] concerns T-47D breast.
Assay [12] relates to MDA-MB-231 breast.
The test system of assay [13] is A498 renal.
The subject of assay [14] is IGROV1 ovarian.
Assay [15] deals with OVCAR-4 ovarian.
Assay [16] has as its system HT29 colon.
Assay [17] has as its system HL-60(TB) leukemia.
In assay [18] the test system is SR leukemia.

On to `Cc1ccsc1/C=N/Nc1nc2ccccc2s1`, for which the TGI was 28.8 µM in assay [1]; > 100 µM in [2]; > 100 µM in assay [3]; 36.1 µM in assay [4]; 72.2 µM in [5]; 94.9 µM in [6]. Also, the TGI in assay [7] was 28.3 µM; in assay [8], 51.4 µM; in assay [9], > 100 µM; in [10], > 100 µM; in [11] it was > 100 µM; in assay [12] it was 27.5 µM. The TGI in [13] is 19.2 µM; in assay [14], 23.5 µM; in [15], 72.9 µM; in assay [16] it was > 100 µM.
Regarding `Cc1cnc2sn(-c3ccc(Oc4ccccc4)cc3)c(=O)c2c1`, the TGI in [1] is > 100 µM; in [2], 42.2 µM; in [3], 22.8 µM; in assay [5] it was > 100 µM; in assay [6], 70.7 µM; in assay [7] it was 46 µM. Moreover, the TGI in [8] is 43.7 µM; in assay [17], > 100 µM; in assay [9] it was 33.3 µM; in [10], 81 µM; in assay [18], 44 µM; in assay [11] it was 37.7 µM. Further, the TGI came to 37.6 µM in assay [12], 45.5 µM in assay [14], 32.9 µM in assay [15] and 39.6 µM in assay [16].
On to `CC[C@]12C=CCN3CC[C@@]4(c5cc(Br)c(OC)cc5N(C)[C@H]4[C@@](O)(C(=O)NN)[C@@H]1O)[C@@H]32`, for which the TGI in [1], in [2], in assay [3], in [4], in assay [6] and in [7] was > 100 µM throughout. Moreover, the TGI in [8], in assay [17], in assay [9], in assay [10], in assay [11] and in assay [12] was > 100 µM in each case. The TGI in assay [13], in [14], in assay [15] and in [16] was > 100 µM in each case.
With `COC(=O)C1Cc2c(OC)ccc(OC)c2CC(C(=O)OC)C1=O` (centres undefined), the TGI in assay [1], in assay [2], in [3], in assay [4], in assay [5] and in [6] was > 100 µM each time. For the same compound, the TGI in assay [7], in [8], in [9], in assay [11], in [12] and in assay [13] was > 100 µM in each case. Moreover, the TGI in assay [14], in [15] and in assay [16] was > 100 µM in each case.
For `COC(=O)C(Cc1c[nH]c2ccccc12)NC(=O)C(Cc1c[nH]c2ccccc12)NC(=O)C(Cc1c[nH]c2ccccc12)NC(=O)C(Cc1c[nH]c2ccccc12)NC(=O)C(Cc1c[nH]c2ccccc12)NC(=O)C(Cc1c[nH]c2ccccc12)NC(=O)OC(C)(C)C` (centres undefined) (Boc-WWWWWW-OMe; configuration not given here), the TGI in assay [1], in assay [2], in [3], in assay [4], in [5] and in [6] was > 100 µM in each case. Also, the TGI in [7] was > 100 µM; in assay [8] it was > 100 µM; in assay [17], > 100 µM; in assay [9] it was 31.1 µM; in [10], > 100 µM; in assay [18], > 100 µM. Moreover, the TGI in assay [11], in assay [12], in assay [14], in assay [15] and in assay [16] was > 100 µM each time.
With `CCN(CC)CC1CCCCN1CC(=O)N1c2ccccc2NC(=O)CC1C` (centres undefined), the TGI in assay [1], in assay [2], in [3], in assay [4], in assay [5] and in assay [6] was > 100 µM each time. The TGI in assay [7], in assay [8], in assay [17], in assay [9], in assay [10] and in assay [11] was > 100 µM throughout. Moreover, the TGI in assay [12], in assay [13], in [14], in [15] and in assay [16] was > 100 µM each time.
Turning to `N/C(=N\S(=O)(=O)c1ccc(S(=O)(=O)c2ccccc2)s1)Nc1ccc(Cl)cc1`, the TGI is 46 µM in [2]; 88.7 µM in assay [5]; 44.8 µM in assay [6]; 27.8 µM in assay [7]; 29.1 µM in assay [8]; 53.8 µM in assay [17]. Also, the TGI in [9] is 44 µM; in assay [10] it was 32.4 µM; in assay [18], 61.9 µM; in assay [11], > 100 µM; in assay [12] it was 28.8 µM; in assay [13] it was 34.7 µM. Further, the TGI in assay [14] was 31.7 µM; in [15] it was 94.8 µM; in assay [16], 45.1 µM.
Consider `Oc1ccc(-c2nc(-c3cccnc3)c(-c3ccc(Cl)cc3)[nH]2)cc1O`, for which the TGI in assay [1] was > 100 µM; in assay [2] it was 21.6 µM; in [3] it was 26.6 µM; in [4], 46.7 µM; in assay [5], > 100 µM; in assay [6] it was 27.2 µM. Moreover, the TGI in assay [7] was 26.4 µM; in assay [8], 28.3 µM; in [17] it was > 100 µM; in assay [9], 36.2 µM; in assay [10] it was 30.1 µM; in assay [18] it was > 100 µM. Moreover, the TGI in assay [11] stood at 37.9 µM; in assay [12], 47.8 µM; in [14], 18.6 µM; in assay [15], 51.6 µM; in [16], 27.7 µM.
